From BindingDB's records for doi:10.1021/acsmedchemlett.9b00354 (Bristol-Myers Squibb, 2019)

Experiment: Effect on ZAP70 phosphorylation in human Jurkat cells pre-incubated for 30 mins followed by anti-CD3/CD28 stimulation measured after 10 mins

Row | SMILES | EC50 [nM]
1 | COc1ccc2c(C(=O)Nc3ccc(NC(=O)c4nn(C)c5ccccc45)cc3C)cnn2c1 | > 20000
2 | CC(C)(C)NC(=O)N1CCC(n2nc(C(=O)Nc3ccc(NC(=O)c4cnn5ccccc45)cc3)c3ccccc32)CC1 | 1400
3 | COc1ccc2c(C(=O)Nc3ccc(NC(=O)c4nn(C5CCN(C(=O)CC(C)(C)C#N)CC5)c5ccc(F)cc45)cc3Cl)cnn2c1 | 41
4 | Cc1cc(NC(=O)c2nn(C3CCN(C(=O)CC(C)(C)C#N)CC3)c3ccccc23)ccc1NC(=O)c1cnn2ccccc12 | 88
5 | COc1ccc2c(C(=O)Nc3ccc(NC(=O)c4nn(C5CCN(C(=O)NC(C)(C)C)CC5)c5ccccc45)cc3C)cnn2c1 | 28
6 | CC(C)(C)NC(=O)N1CC(Cn2nc(C(=O)Nc3ccc(-c4ccc(=O)[nH]n4)c(Cl)c3)c3ccccc32)C1 | 7900
7 | COc1ccc2c(C(=O)Nc3ccc(NC(=O)c4nn(C5CCN(C(=O)NC(C)(C)C)CC5)c5ccc(F)cc45)cc3Cl)cnn2c1 | 56

The next lines start with the values.

Row | EC50 [nM] | SMILES
8 | 4050 | Cc1cc(=O)[nH]nc1-c1ccc(NC(=O)c2nn(C3CCN(C(=O)NC(C)(C)C)CC3)c3ccccc23)cc1Cl
9 | 2700 | CCc1cc(NC(=O)c2nn(C3CCN(C(=O)NC(C)(C)C)CC3)c3ccccc23)ccc1-c1cc(C)c(=O)[nH]n1
10 | 49 | CC(C)(C)NC(=O)N1CCC(n2nc(C(=O)Nc3ccc(NC(=O)c4cnn5ccccc45)c(Cl)c3)c3ccccc32)CC1
11 | 5700 | CC(C)(C)NC(=O)N1CCC(n2nc(C(=O)Nc3ccc(-c4ccc(=O)[nH]n4)c(Cl)c3)c3ccccc32)CC1
12 | 2000 | CCc1cc(NC(=O)c2nn(C3CCN(C(=O)NC(C)(C)C)CC3)c3ccccc23)ccc1-c1n[nH]c(=O)cc1C
13 | 42 | Cc1cc(NC(=O)c2nn(C3CCN(C(=O)NC(C)(C)C)CC3)c3ccccc23)ccc1NC(=O)c1cnn2ccccc12
14 | 420 | CCc1cc(NC(=O)c2nn(C3CCN(C(=O)NC(C)(C)C)CC3)c3ccccc23)ccc1-c1n[nH]c(=O)c(C)c1C
